# From the supplement of paper PMC9663587
# Legend:
# Experiment in all cases: area over the GR curve, 72 h; higher = more effect;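 also: Dye Drop or Deep Dye Drop imaging of viable cells in 384-well plates (Hoechst nuclei, LIVE/DEAD dye), nine half-log doses, GR normalized to DMSO controls and time-zero plates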
# 184A1 = tested on: 184A1
# AU565 = tested on: AU565
# BT474 = tested on: BT474
# EVSAT = tested on: EVSAT
# HCC1395 = tested on: HCC1395
# HCC1937 = tested on: HCC1937
# HCC38 = tested on: HCC38
# HCC70 = tested on: HCC70
# MCF10A = tested on: MCF10A
# MDAMB175VII = tested on: MDAMB175VII
# PDXHCI002 = tested on: PDXHCI002
# SKBR3 = tested on: SKBR3
# SUM229PE = tested on: SUM229PE
Structure (SMILES),area over the GR curve (184A1),area over the GR curve (AU565),area over the GR curve (BT474),area over the GR curve (EVSAT),area over the GR curve (HCC1395),area over the GR curve (HCC1937),area over the GR curve (HCC38),area over the GR curve (HCC70),area over the GR curve (MCF10A),area over the GR curve (MDAMB175VII),area over the GR curve (PDXHCI002),area over the GR curve (SKBR3),area over the GR curve (SUM229PE)
CO[C@H]1C[C@@H]2CC[C@@H](C)[C@@](O)(O2)C(=O)C(=O)N2CCCC[C@H]2C(=O)O[C@H]([C@H](C)C[C@@H]2CC[C@@H](OCCO)[C@H](OC)C2)CC(=O)[C@H](C)/C=C(\C)[C@@H](O)[C@@H](OC)C(=O)[C@H](C)C[C@H](C)/C=C/C=C/C=C/1C [Everolimus] (max 10 µM),0.452 GR,0.553 GR,0.898 GR,0.551 GR,0.555 GR,0.335 GR,0.486 GR,0.476 GR,0.113 GR,1.14 GR,-0.0896 GR,0.794 GR,0.226 GR
CCC(=O)Nc1ccc(C(=O)Nc2ccc(Nc3ncc4c(n3)N(C)c3ccc(C)cc3C(=O)N4C)cc2)cc1 [FMF-03-145-1],1 GR,0.501 GR,0.951 GR,1 GR,0.52 GR,0.464 GR,0.581 GR,1.31 GR,1.05 GR,0.919 GR,0.915 GR,0.464 GR,1.06 GR
COc1cc(N2CCN(C)CC2)ccc1Nc1ncc2c(n1)N(C)c1ccccc1C(=O)N2CC(F)(F)F [FMF-03-146-1],0.0018 GR,0.0771 GR,0.0118 GR,-0.0034 GR,0.163 GR,0.0547 GR,0.0485 GR,-0.0097 GR,-0.0018 GR,0.0733 GR,-0.0147 GR,0.0465 GR,0.0104 GR
CN1CC[C@H](c2c(O)cc(O)c3c(=O)cc(-c4ccccc4Cl)oc23)[C@H](O)C1 [Flavopiridol] (max 1 µM),0.418 GR,0.368 GR,0.371 GR,0.157 GR,0.339 GR,0.238 GR,0.29 GR,0.415 GR,0.277 GR,0.413 GR,0.278 GR,0.342 GR,0.3 GR
CC(C)n1nc(-c2ccc3oc(N)nc3c2)c2c(N)ncnc21 [INK128/MLN0128] (max 3.162 µM),0.581 GR,0.791 GR,0.834 GR,0.691 GR,0.557 GR,0.369 GR,0.536 GR,0.702 GR,0.467 GR,1.17 GR,0.122 GR,0.971 GR,0.379 GR
CC(C)NC[C@@H](C(=O)N1CCN(c2ncnc3c2[C@H](C)C[C@H]3O)CC1)c1ccc(Cl)cc1 [Ipatasertib/GDC0068] (max 10 µM),0.12 GR,0.147 GR,0.344 GR,0.463 GR,0.278 GR,0.156 GR,0.122 GR,0.488 GR,0.06 GR,0.456 GR,-0.114 GR,0.152 GR,0.1 GR
CN(C)C(=O)c1cc2cnc(Nc3ccc(N4CCNCC4)cn3)nc2n1C1CCCC1 [LEE011/Ribociclib] (max 10 µM),0.449 GR,0.403 GR,0.412 GR,0.12 GR,0.323 GR,0.0156 GR,0.417 GR,-0.0535 GR,0.235 GR,0.8 GR,0.123 GR,0.34 GR,0.221 GR
CCNC(=O)c1noc(-c2cc(C(C)C)c(O)cc2O)c1-c1ccc(CN2CCOCC2)cc1 [Luminespib/NVP-AUY922] (max 1 µM),0.539 GR,0.689 GR,0.781 GR,0.68 GR,0.617 GR,0.548 GR,0.624 GR,0.732 GR,0.613 GR,0.774 GR,0.7 GR,0.714 GR,0.729 GR
CCOc1cc2ncc(C#N)c(Nc3ccc(OCc4ccccn4)c(Cl)c3)c2cc1NC(=O)/C=C/CN(C)C [Neratinib/HKI272] (max 3.162 µM),0.421 GR,1.15 GR,1.43 GR,0.0683 GR,0.142 GR,0.171 GR,0.102 GR,0.317 GR,0.344 GR,1.45 GR,0.367 GR,0.891 GR,0.24 GR
O=C(c1cc(Cc2n[nH]c(=O)c3ccccc23)ccc1F)N1CCN(C(=O)C2CC2)CC1 [Olaparib/AZD2281] (max 10 µM),0.0908 GR,0.0653 GR,0.0431 GR,0.0599 GR,0.253 GR,0.0584 GR,0.0719 GR,-0.0522 GR,0.0408 GR,0.0102 GR,0.167 GR,0.04 GR,0.0365 GR
CC(=O)O[C@H]1C(=O)[C@@]2(C)[C@H]([C@H](OC(=O)c3ccccc3)[C@]3(O)C[C@H](OC(=O)[C@H](O)[C@@H](NC(=O)c4ccccc4)c4ccccc4)C(C)=C1C3(C)C)[C@]1(OC(C)=O)CO[C@@H]1C[C@@H]2O [Paclitaxel] (max 1 µM),0.75 GR,0.994 GR,0.873 GR,0.844 GR,0.839 GR,0.658 GR,0.843 GR,0.977 GR,0.702 GR,0.837 GR,0.921 GR,0.89 GR,0.91 GR
CS(=O)(=O)N1CCN(Cc2cc3nc(-c4cccc5[nH]ncc45)nc(N4CCOCC4)c3s2)CC1 [Pictilisib/GDC0941] (max 10 µM),0.276 GR,0.646 GR,0.588 GR,0.387 GR,0.226 GR,0.211 GR,0.118 GR,0.573 GR,0.262 GR,0.417 GR,0.212 GR,0.512 GR,0.137 GR
O=C1NC(=NCc2cccs2)SC1=Cc1ccc2ncccc2c1 [R0-3306] (max 10 µM),0.207 GR,0.406 GR,0.22 GR,0.115 GR,0.418 GR,0.143 GR,0.0714 GR,0.0814 GR,0.115 GR,0.239 GR,0.0778 GR,0.163 GR,0.0926 GR
